Results: US20240368191A1, “HETEROCYCLIC COMPOUNDS AND USES THEREOF” (Kumquat Biosciences Inc., priority 2021, published 2024)

Biological target: T1, KRAS G12D 1-169 (His-tagged, GDP-loaded) (Homo sapiens, UniProt P01116, G12D)
T1 construct: His -tagged GDP-loaded G12D 1-169; made in house; host or cells: E. coli, e.g. BL21 (DE3)
T1 sequence (P01116 1-169 isoform P01116-2 G12D): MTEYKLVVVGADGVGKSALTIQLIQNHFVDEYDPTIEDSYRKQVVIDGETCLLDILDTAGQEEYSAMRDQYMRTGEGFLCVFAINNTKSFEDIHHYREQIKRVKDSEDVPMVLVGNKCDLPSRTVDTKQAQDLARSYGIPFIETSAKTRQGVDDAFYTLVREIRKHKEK
Experiment: Covalent modification of KRAS protein by intact-protein LC-MS
Type: binding
Details: comparable or same conditions as K-Ras G12S
Description: Test compounds are prepared as 10 mM stock solutions in DMSO (Fisher cat #BP231-100). KRAS protein (His -tagged GDP-loaded wildtype 1-169, His -tagged GDP-loaded G12S 1-169 or His -tagged GDP-loaded G12D 1-169) is diluted to ˜2 μM in appropriate buffer (e.g., a Hepes buffer at physiological conditions). For testing KRAS modification, compounds are diluted to 50× final test concentration in DMSO in 96-well storage plates. 2 μl of the diluted 50× compounds are added to appropriate wells in the PCR plate (Fisher cat #AB-0800). ˜49 μl of the stock protein solution is added to each well of the 96-well PCR plate. Reactions are mixed carefully. The plate is sealed well with aluminum plate seal, and stored in drawer at room temperature for 24 hrs. 5 μl of 2% formic acid (Fisher cat #A117-50) in MilliQ H2O is then added to each well followed by mixing with a pipette. The plate is then resealed with aluminum seal and stored until mass spectrometry analysis.
The extent of covalent modification of KRAS proteins was determined by liquid chromatography electrospray mass spectrometry analysis of the intact proteins on a Thermo Q-Exactive Plus mass spectrometer. 20 μl of sample was injected onto a bioZen 3.6 μm Intact C4 column (Phenomenex cat #00B-4767-AN) placed in a column oven set to 40° C. and separated using a suitable LC gradient from ˜20% to ˜60% solvent B. Solvent A was 0.1% formic acid and solvent B was 0.1% formic acid in acetonitrile. HESI source settings were set to 40, 5 and 1 for the sheath, auxiliary and sweep gas flow, respectively. The spray voltage was 4 kV, and the capillary temperature was 320° C. S-lens RF level was 50 and auxiliary gas heater temperature was set to 200° C. The mass spectrometry was acquired using a scan range from 650 to 1750 m/z using positive polarity at a mass resolution of 70,000, AGC target of 1e6 ions and maximum injection time of 250 ms. The recorded protein mass spectrum was deconvoluted from the raw data file using Protein Deconvolution v4.0 (Thermo). The protein mass and adduct masses were exported with their peak intensities. The peak intensities for the unmodified and modified protein were used to calculate the percent covalent modification of the KRAS protein based on the following equation: % KRAS protein modification=((KRAS−compound)/(KRAS)+(KRAS−Compound))*100.
In the case of `Cc1nc(C)n(C(=O)N2CC3(COCCN(c4nc(OC[C@@]56CCCN5C[C@H](F)C6)nc5c(F)c(-c6ccc(F)c7sc(N)c(C#N)c67)c(Cl)cc45)C3)C2)n1` [Compound A185, 2-amino-4-(6-chloro-4-(2-(3,5-dimethyl-1H-1,2,4-triazole-1-carbonyl)-6-oxa-2,9-diazaspiro-[3.6]decan-9-yl)-8-fluoro-2-(((2R,7aS)-2-fluorotetrahydro-1H-pyrrolizin-7a(5H)-yl)meth-oxy)quinazolin-7-yl)-7-fluoro-benzo[b]thiophene-3-carbonitrile], the “covalent labeling of K-Ras G12D” value is reported as “essentially no detectable labeling”. For `Nc1nc2c(-c3c(Cl)cc4c(N5CC6(CCCN(C(=O)n7cncn7)C6)C5)nc(OC[C@@]56CCCN5C[C@H](F)C6)nc4c3F)ccc(F)c2s1` [Compound A230, (2-(7-(2-amino-7-fluorobenzo-[d]thiazol-4-yl)-6-chloro-8-fluoro-2-(((2R,7aS)-2-fluoro-tetrahydro-1H-pyrrolizin-7a(5H)-yl)methoxy)quinazolin-4-yl)-2,6-diazaspiro[3.5]nonan-6-yl)(1H-1,2,4-triazol-1-yl)-methanone], the “covalent labeling of K-Ras G12D” value was “essentially no detectable labeling”. In the case of `Nc1nc2c(-c3c(Cl)cc4c(N5CCC56CCCN(C(=O)n5cncn5)CC6)nc(OC[C@@]56CCCN5C[C@H](F)C6)nc4c3F)ccc(F)c2s1` (stereo partly drawn) [Compound A209, (1-(7-(2-amino-7-fluorobenzo-[d]thiazol-4-yl)-6-chloro-8-fluoro-2-(((2R,7aS)-2-fluoro-tetrahydro-1H-pyrrolizin-7a(5H)-yl)methoxy)quinazolin-4-yl)-1,7-diazaspiro[3.6]decan-7-yl)(1H-1,2,4-triazol-1-yl)-methanone], the “covalent labeling of K-Ras G12D” value is reported as “essentially no detectable labeling”. In the case of `C#Cc1c(F)ccc2cc(O)cc(-c3ncc4c(N5CCOCC6(CN(C(=O)n7cnc(C)n7)C6)C5)nc(OC[C@@]56CCCN5C[C@H](F)C6)nc4c3F)c12` [Compound A298, (9-(7-(8-ethynyl-7-fluoro-3-hydroxynaphthalen-1-yl)-8-fluoro-2-(((2R,7aS)-2-fluoro-tetrahydro-1H-pyrrolizin-7a(5H)-yl)methoxy)pyrido[4,3-d]pyrimidin-4-yl)-6-oxa-2,9-diazaspiro[3.6]decan-2-yl)(3-methyl-1H-1,2,4-triazol-1-yl)-methanone], the “covalent labeling of K-Ras G12D” value is reported as “essentially no detectable labeling”. With `Nc1nc2c(-c3c(Cl)cc4c(N5CCC56CCCN(C(=O)n5cncn5)C6)nc(OCC56CCCN5CC(F)C6)nc4c3F)ccc(F)c2s1` (centres unmarked) [Compound A197, (1-(7-(2-amino-7-fluorobenzo-[d]thiazol-4-yl)-6-chloro-8-fluoro-2-((2-fluorotetrahydro-1H-pyrrolizin-7a(5H)-yl)meth-oxy)quinazolin-4-yl)-1,6-diazaspiro[3.5]nonan-6-yl)(1H-1,2,4-triazol-1-yl)methanone] the “covalent labeling of K-Ras G12D” value was “essentially no detectable labeling”. In the case of `N#Cc1c(N)sc2c(F)ccc(-c3c(Cl)cc4c(OC5CCCCN(C(=O)n6cncn6)C5)nc(OC[C@@]56CCCN5C[C@H](F)C6)nc4c3F)c12` (stereo partly drawn) [Compound A258, 4-(4-((1-(1H-1,2,4-triazole-1-carbonyl)azepan-3-yl)oxy)-6-chloro-8-fluoro-2-(((2R,7aS)-2-fluorotetrahydro-1H-pyrrolizin-7a(5H)-yl)methoxy)quinazolin-7-yl)-2-amino-7-fluorobenzo-[b]thiophene-3-carbonitrile], the “covalent labeling of K-Ras G12D” value is reported as “essentially no detectable labeling”. With `Cc1ncn(C(=O)N2CC3CCN(c4nc(OC[C@@]56CCCN5C[C@H](F)C6)nc5c(F)c(-c6ccc(F)c7sc(N)c(C#N)c67)c(Cl)cc45)C3C2)n1` (stereo partly drawn) [Compound A304, 2-amino-4-(6-chloro-8-fluoro-2-(((2R,7aS)-2-fluorotetrahydro-1H-pyrrolizin-7a(5H)-yl)meth-oxy)-4-(5-(3-methyl-1H-1,2,4-triazole-1-carbonyl)hexahydro-pyrrolo[3,4-b]pyrrol-1(2H)-yl)quinazolin-7-yl)-7-fluoro-benzo[b]thiophene-3-carbonitrile] the “covalent labeling of K-Ras G12D” value was “essentially no detectable labeling”. In the case of `Nc1nc2c(-c3c(Cl)cc4c(N5CCCCC6(CN(C(=O)n7cncn7)C6)C5)nc(OC[C@@]56CCCN5C[C@H](F)C6)nc4c3F)ccc(F)c2s1` [Compound A265, (6-(7-(2-amino-7-fluorobenzo-[d]thiazol-4-yl)-6-chloro-8-fluoro-2-(((2R,7aS)-2-fluoro-tetrahydro-1H-pyrrolizin-7a(5H)-yl)methoxy)quinazolin-4-yl)-2,6-diazaspiro[3.6]decan-2-yl)(1H-1,2,4-triazol-1-yl)-methanone], the “covalent labeling of K-Ras G12D” value is reported as “essentially no detectable labeling”. In the case of `Nc1nc2c(-c3c(Cl)cc4c(N5CCCC6(CN(C(=O)n7cncn7)CCO6)C5)nc(OC[C@@]56CCCN5C[C@H](F)C6)nc4c3F)ccc(F)c2s1` (stereo partly drawn) [Compound A125, (8-(7-(2-amino-7-fluorobenzo-[d]thiazol-4-yl)-6-chloro-8-fluoro-2-(((2R,7aS)-2-fluoro-tetrahydro-1H-pyrrolizin-7a(5H)-yl)methoxy)quinazolin-4-yl)-1-oxa-4,8-diazaspiro[5.5]-undecan-4-yl)(1H-1,2,4-triazol-1-yl)methanone], the “covalent labeling of K-Ras G12D” value is reported as “essentially no detectable labeling”. With `N#Cc1c(N)sc2c(F)ccc(-c3c(Cl)cc4c(N5CCOC6(CN(C(=O)n7ccnn7)C6)C5)nc(OC[C@@]56CCCN5C[C@H](F)C6)nc4c3F)c12` [Compound A195, 4-(4-(2-(1H-1,2,3-triazole-1-carbonyl)-5-oxa-2,8-diazaspiro-[3.5]nonan-8-yl)-6-chloro-8-fluoro-2-(((2R,7aS)-2-fluoro-tetrahydro-1H-pyrrolizin-7a(5H)-yl)methoxy)quinazolin-7-yl)-2-amino-7-fluorobenzo-[b]thiophene-3-carbonitrile] the “covalent labeling of K-Ras G12D” value was “essentially no detectable labeling”. For `N#Cc1c(N)sc2c(F)ccc(-c3c(Cl)cc4c(OC5CCCCN(C(=O)n6cncn6)C5)nc(OC[C@@]56CCCN5C[C@H](F)C6)nc4c3F)c12` (stereo partly drawn) [Compound A169, 4-(4-((1-(1H-1,2,4-triazole-1-carbonyl)azepan-3-yl)oxy)-6-chloro-8-fluoro-2-(((2R,7aS)-2-fluorotetrahydro-1H-pyrrolizin-7a(5H)-yl)methoxy)quinazolin-7-yl)-2-amino-7-fluorobenzo-[b]thiophene-3-carbonitrile], the “covalent labeling of K-Ras G12D” value was “essentially no detectable labeling”.

System: not listed separately
Experiment: Metabolic (microsomal) stability assay
Details: pooled liver microsomes, pH 7.4
In the case of `N#Cc1c(N)sc2c(F)ccc(-c3c(Cl)cc4c(N5CCN(CC6CC6)C6(CN(C(=O)n7cncn7)C6)C5)nc(OC[C@@]56CCCN5C[C@H](F)C6)nc4c3F)c12` [Compound A139, 2-amino-4-(6-chloro-4-(5-(cyclopropylmethyl)-2-(1H-1,2,4-triazole-1-carbonyl)-2,5,8-triazaspiro[3.5]nonan-8-yl)-8-fluoro-2-(((2R,7aS)-2-fluoro-tetrahydro-1H-pyrrolizin-7a(5H)-yl)methoxy)quinazolin-7-yl)-7-fluorobenzo[b]thiophene-3-carbonitrile], the half-life at 0.5 μM is reported as > 10 min. In the case of `N#Cc1c(N)sc2c(F)ccc(-c3c(Cl)cc4c(N5CC6(CN(C(=O)n7cncn7)CCO6)C5)nc(OC[C@@]56CCCN5C[C@H](F)C6)nc4c3F)c12` [Compound A140, 4-(4-(8-(1H-1,2,4-triazole-1-carbonyl)-5-oxa-2,8-diaza-spiro[3.5]nonan-2-yl)-6-chloro-8-fluoro-2-(((2R,7aS)-2-fluoro-tetrahydro-1H-pyrrolizin-7a(5H)-yl)methoxy)quinazolin-7-yl)-2-amino-7-fluorobenzo-[b]thiophene-3-carbonitrile], the half-life at 0.5 μM is reported as > 10 min. In the case of `N#Cc1c(N)sc2c(F)ccc(-c3c(Cl)cc4c(N5CCCC6(CN(C(=O)n7cncn7)C6)C5)nc(OC[C@@]56CCCN5C[C@H](F)C6)nc4c3F)c12` [Compound A129, 4-(4-(2-(1H-1,2,4-triazole-1-carbonyl)-2,6-diazaspiro[3.5]-nonan-6-yl)-6-chloro-8-fluoro-2-(((2R,7aS)-2-fluorotetrahydro-1H-pyrrolizin-7a(5H)-yl)meth-oxy)quinazolin-7-yl)-2-amino-7-fluorobenzo[b]thiophene-3-carbonitrile], the half-life at 0.5 μM is reported as > 10 min.
